Measurements as given in US11122807B2, “Herbicidal mixtures comprising L-glufosinate or its salt and a second herbicide” (BASF SE, priority 2017, dated 2021).

System: LOLMU (Lolium multiflorum)
Experiment: Greenhouse post-emergence herbicidal test, scale 0 to 100, synergism by Colby's equation
Type: in vivo
Text: Synergism can be described as an interaction where the combined effect of two or more compounds is greater than the sum of the individual effects of each of the compounds. The presence of a synergistic effect in terms of percent control, between two mixing partners (X and Y) can be calculated using the Colby equation (Colby, S. R., 1967, Calculating Synergistic and Antagonistic Responses in Herbicide Combinations, Weeds, 15, 21-22):
When the observed combined control effect is greater than the expected (calculated) combined control effect (E), then the combined effect is synergistic.
However, the weed control afforded by the compounds, mixtures or compositions is not limited to these species. The analysis of synergism or antagonism between the mixtures or compositions was determined using Colby's equation.
The culture containers used were plastic flowerpots containing loamy sand with approximately 3.0% of humus as the substrate. The seeds of the test plants were sown separately for each species and/or resistant biotype. For the pre-emergence treatment, the active ingredients, which had been suspended or emulsified in water, were applied directly after sowing by means of finely distributing nozzles. The containers were irrigated gently to promote germination and growth and subsequently covered with transparent plastic hoods until the plants had rooted. This cover caused uniform germination of the test plants, unless this had been impaired by the active ingredients. For the post-emergence treatment, the test plants were first grown to a height of 3 to 15 cm, depending on the plant habit, and only then treated with the active ingredients which had been suspended or emulsified in water. For this purpose, the test plants were either sown directly and grown in the same containers, or they were first grown separately as seedlings and transplanted into the test containers a few days prior to treatment. Depending on the species, the plants were kept at 10-25° C. or 20-35° C., respectively. The test period extended to 20 days after treatment. During this time, the plants were tended, and their response to the individual treatments was evaluated. The evaluation was carried out by using a scale from 0 to 100. 100 means no emergence of the plants or complete destruction of at least the above-ground parts, and 0 means no damage, or normal course of growth. Data shown are the mean of two replications.
L-Glufosinate: 5% EC formulation
Triaziflam: 5% EC formulation
Methiozolin: 250 g/l SC formulation

With `CP(=O)(O)CC[C@H](N)C(=O)O` [L-Glufosinate, (2S)-2-amino-4-[hydroxy(methyl)phosphinoyl]butyric acid] the “Herbicidal activity against LOLMU, Found” value (L-Glufosinate alone 75 g ai/ha, scale 0-100 (100 = complete destruction), Example 1) was 0 and the “Herbicidal activity against LOLMU, Found” value (L-Glufosinate alone 75 g ai/ha, scale 0-100, Example 2) was 0.

With `Cc1ccsc1C1=NOC(C)(COCc2c(F)cccc2F)C1` (stereo not drawn) [methiozoline, methiozolin] the “Herbicidal activity against LOLMU, Found” value (methiozoline alone 125 g ai/ha, scale 0-100, Example 2) was 0 and the “Herbicidal activity against LOLMU, Found” value (methiozoline alone 250 g ai/ha, scale 0-100, Example 2) was 25.

With `Cc1cc(C)cc(OCC(C)Nc2nc(N)nc(C(C)(C)F)n2)c1` (stereo not drawn) [triaziflam] the “Herbicidal activity against LOLMU, Found” value (triaziflam alone 125 g ai/ha, scale 0-100, Example 1) was 10 and the “Herbicidal activity against LOLMU, Found” value (triaziflam alone 250 g ai/ha, scale 0-100, Example 1) was 55.
